Experimental findings from ChEMBL document CHEMBL1142026, “Isoindolinone-based inhibitors of the MDM2-p53 protein-protein interaction” (Bioorg Med Chem Lett, 2005) are described below.

Molecules are shown by their SMILES.

Assay [1] addresses Tumour suppressor p53/oncoprotein Mdm2 (Homo sapiens, UniProt Q00987). Description: (§1) Inhibitory concentration against MDM2-p53 interaction in SJSA human sarcoma cells. It counts as cell-based, SJSA-1.
The target in assay [2] is Tumour suppressor p53/oncoprotein Mdm2 (Homo sapiens, UniProt P04637+Q00987). The description is as §1. The note with it: sjsa-1. It counts as cell-based, SJSA-1.

One may read the IC50 as the midpoint of a concentration-inhibition curve.

Sequence of Tumour suppressor p53/oncoprotein Mdm2 (Homo sapiens, UniProt Q00987) (P04637 whole entry): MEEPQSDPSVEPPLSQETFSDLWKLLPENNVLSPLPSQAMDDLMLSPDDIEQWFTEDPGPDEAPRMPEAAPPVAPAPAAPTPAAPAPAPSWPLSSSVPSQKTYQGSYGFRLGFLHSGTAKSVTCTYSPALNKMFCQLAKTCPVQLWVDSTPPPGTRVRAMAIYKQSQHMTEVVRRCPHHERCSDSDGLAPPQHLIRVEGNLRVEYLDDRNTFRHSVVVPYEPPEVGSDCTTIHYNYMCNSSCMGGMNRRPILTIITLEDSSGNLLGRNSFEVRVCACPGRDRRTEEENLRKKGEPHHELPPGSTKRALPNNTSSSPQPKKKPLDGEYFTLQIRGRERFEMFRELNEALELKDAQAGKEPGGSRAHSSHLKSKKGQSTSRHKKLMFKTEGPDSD
Sequence of Tumour suppressor p53/oncoprotein Mdm2 (Homo sapiens, UniProt Q00987) (Q00987 whole entry): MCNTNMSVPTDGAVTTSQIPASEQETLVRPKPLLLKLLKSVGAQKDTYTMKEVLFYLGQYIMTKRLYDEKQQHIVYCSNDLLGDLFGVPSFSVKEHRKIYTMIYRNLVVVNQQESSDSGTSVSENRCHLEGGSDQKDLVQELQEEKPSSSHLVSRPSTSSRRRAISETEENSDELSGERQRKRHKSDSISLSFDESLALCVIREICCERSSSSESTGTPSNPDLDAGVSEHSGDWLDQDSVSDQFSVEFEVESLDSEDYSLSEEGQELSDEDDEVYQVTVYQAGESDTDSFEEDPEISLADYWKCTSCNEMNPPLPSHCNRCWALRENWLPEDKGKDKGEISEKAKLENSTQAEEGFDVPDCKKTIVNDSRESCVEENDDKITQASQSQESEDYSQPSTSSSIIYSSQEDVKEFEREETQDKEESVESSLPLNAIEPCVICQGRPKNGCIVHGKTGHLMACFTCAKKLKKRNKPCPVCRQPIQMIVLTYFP
Sequence of Tumour suppressor p53/oncoprotein Mdm2 (Homo sapiens, UniProt P04637+Q00987) (P04637 whole entry): as the sequence (P04637 whole entry) above
Sequence of Tumour suppressor p53/oncoprotein Mdm2 (Homo sapiens, UniProt P04637+Q00987) (Q00987 whole entry): as the sequence (Q00987 whole entry) above

Regarding `COc1cc(COC2(c3ccccc3)c3ccccc3C(=O)N2Cc2ccccc2)cc(OC)c1O` (centres undefined), in assay [1], half-maximal inhibition (IC50) was put at 17.9 µM.

With `CCCN1C(=O)c2ccccc2C1(OCCCO)c1ccccc1` (centres undefined), the IC50 in assay [1] was above 500 µM.

For the compound `CCCN1C(=O)c2ccccc2C1(OCCc1ccccn1)c1ccccc1` (centres undefined), the IC50 in assay [1] turned out to be 100 µM.

As for `COc1ccc(C(O)CNC2(c3ccccc3)c3ccccc3C(=O)N2Cc2ccccc2)cc1` (centres undefined), in assay [1], 70 µM corresponded to half-maximal inhibition (IC50).

Regarding `COc1cc(COC2(c3ccc(Cl)cc3)c3ccccc3C(=O)N2CCNC(C)=O)cc(OC)c1O` (centres undefined), the midpoint of inhibition in assay [1], the IC50, lay at 76 µM.

As for `CCCN1C(=O)c2ccccc2C1(NC(=O)c1ccc(C(C)(C)C)cc1)c1ccc(OCOCC[Si](C)(C)C)cc1` (centres undefined), the IC50 in assay [1] worked out at 27 µM.

As to `CCCOC1(c2ccccc2)c2ccccc2C(=O)N1Cc1ccccc1` (centres undefined), the IC50 in assay [1] is around 200 µM.

Compound `CCCN1C(=O)c2ccccc2C1(OCc1ccc(C(C)(C)C)cc1)c1ccccc1` (centres undefined) had an IC50 in assay [1] above 500 µM.

As to `CC(C)(C)c1ccc(COC2(c3ccc(Cl)cc3)c3ccccc3C(=O)N2Cc2ccccc2)cc1` (centres undefined), in assay [1], the IC50 came out at 99 µM.

As to `CCCNC1(c2ccccc2)c2ccccc2C(=O)N1Cc1ccccc1` (centres undefined), the IC50 in assay [1] is around 200 µM.

`COc1cc(COC2(c3ccc(Cl)cc3)c3ccccc3C(=O)N2Cc2ccccc2)cc(OC)c1O` (centres undefined) yielded an IC50 in assay [1] of 42 µM.

For `CCCOC1(c2ccccc2)c2ccccc2C(=O)N1C(Cc1ccc(O)cc1)C(=O)OC` (centres undefined), in assay [1], it took 90 µM to reach half-maximal inhibition (IC50).

`CC(=O)NCCN1C(=O)c2ccccc2C1(OCc1ccc(C(C)(C)C)cc1)c1ccccc1` (centres undefined) registered an IC50 in assay [1] of 14 µM.

`CCCOC1(c2ccccc2)c2ccccc2C(=O)N1CCC` (centres undefined) showed an IC50 in assay [1] of around 200 µM.

`O=C1c2ccccc2C(OCCCO)(c2ccc(Cl)cc2)N1Cc1ccccc1` (centres undefined) registered an IC50 in assay [1] of 15.9 µM.

Consider `CCCN1C(=O)c2ccccc2C1(NC(=O)c1ccccc1)c1ccc(C(C)(C)C)cc1` (centres undefined), for which the IC50 in assay [1] is 66 µM.

For the compound `CCCN1C(=O)c2ccccc2C1(OCc1cc(OC)c(O)c(OC)c1)c1ccc(Cl)cc1` (centres undefined), the IC50 in assay [1] was 5.3 µM.

The compound `O=C1c2ccccc2C(OCCc2ccccn2)(c2ccc(Cl)cc2)N1Cc1ccccc1` (centres undefined) showed a concentration for half-maximal inhibition (IC50) in assay [1] of 26.2 µM.

For `CC(=O)NCCN1C(=O)c2ccccc2C1(OCc1ccc(C(C)(C)C)cc1)c1ccc(Cl)cc1` (centres undefined), the IC50 in assay [1] was determined as 91.4 µM.

`CCCN1C(=O)c2ccccc2C1(OCc1cc(OC)c(O)c(OC)c1)c1ccccc1` (centres undefined): in assay [1], the 50% inhibitory concentration (IC50) came out at 82 µM.

In the case of `CCCN1C(=O)c2ccccc2C1(OCCc1ccccn1)c1ccc(Cl)cc1` (centres undefined), in assay [1], the IC50 came out at 57 µM.

`CCCN1C(=O)c2ccccc2C1(OCCCO)c1ccc(Cl)cc1` (centres undefined) displayed an IC50 in assay [1] of 16.4 µM.

Take `CC(C)(C)c1ccc(COC2(c3ccccc3)c3ccccc3C(=O)N2Cc2ccccc2)cc1` (stereo in doubt; 2d): in assay [2], the IC50 came out at 92 µM.

`CC(C)(C)c1ccc(COC2(c3ccccc3)c3ccccc3C(=O)N2Cc2ccccc2)cc1` (stereo in doubt; 5) had an IC50 in assay [1] of 92 µM.
